According to ChEMBL document CHEMBL1201862, “PubChem BioAssay data set” (2004):
Activity calls are given as the source filed them.

What was measured:
[1] = target: T1, RNA-editing ligase 1, mitochondrial (Trypanosoma brucei brucei, UniProt P86926); test: inhibition of trypanosome RNA editing ligase – biochemical, fluorescence, Trypanosoma brucei, dose response (AID 1117295); type: functional
T1 sequence (P86926 whole entry): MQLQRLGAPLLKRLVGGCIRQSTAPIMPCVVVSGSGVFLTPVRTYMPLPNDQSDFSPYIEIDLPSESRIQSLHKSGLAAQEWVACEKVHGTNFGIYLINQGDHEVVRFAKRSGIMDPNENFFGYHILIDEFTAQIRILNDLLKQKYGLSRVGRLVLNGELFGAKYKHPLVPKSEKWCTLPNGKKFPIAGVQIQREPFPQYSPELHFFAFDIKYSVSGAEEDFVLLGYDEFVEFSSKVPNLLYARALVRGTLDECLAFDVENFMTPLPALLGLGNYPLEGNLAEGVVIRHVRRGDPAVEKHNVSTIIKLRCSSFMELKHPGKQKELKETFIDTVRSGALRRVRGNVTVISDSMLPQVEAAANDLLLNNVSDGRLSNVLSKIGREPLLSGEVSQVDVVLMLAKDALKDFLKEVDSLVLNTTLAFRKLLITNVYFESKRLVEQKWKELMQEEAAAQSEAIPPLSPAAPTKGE

[2] = target: T2, Apoptotic protease-activating factor 1 (Homo sapiens, UniProt O14727); type: functional
T2 sequence (O14727 whole entry): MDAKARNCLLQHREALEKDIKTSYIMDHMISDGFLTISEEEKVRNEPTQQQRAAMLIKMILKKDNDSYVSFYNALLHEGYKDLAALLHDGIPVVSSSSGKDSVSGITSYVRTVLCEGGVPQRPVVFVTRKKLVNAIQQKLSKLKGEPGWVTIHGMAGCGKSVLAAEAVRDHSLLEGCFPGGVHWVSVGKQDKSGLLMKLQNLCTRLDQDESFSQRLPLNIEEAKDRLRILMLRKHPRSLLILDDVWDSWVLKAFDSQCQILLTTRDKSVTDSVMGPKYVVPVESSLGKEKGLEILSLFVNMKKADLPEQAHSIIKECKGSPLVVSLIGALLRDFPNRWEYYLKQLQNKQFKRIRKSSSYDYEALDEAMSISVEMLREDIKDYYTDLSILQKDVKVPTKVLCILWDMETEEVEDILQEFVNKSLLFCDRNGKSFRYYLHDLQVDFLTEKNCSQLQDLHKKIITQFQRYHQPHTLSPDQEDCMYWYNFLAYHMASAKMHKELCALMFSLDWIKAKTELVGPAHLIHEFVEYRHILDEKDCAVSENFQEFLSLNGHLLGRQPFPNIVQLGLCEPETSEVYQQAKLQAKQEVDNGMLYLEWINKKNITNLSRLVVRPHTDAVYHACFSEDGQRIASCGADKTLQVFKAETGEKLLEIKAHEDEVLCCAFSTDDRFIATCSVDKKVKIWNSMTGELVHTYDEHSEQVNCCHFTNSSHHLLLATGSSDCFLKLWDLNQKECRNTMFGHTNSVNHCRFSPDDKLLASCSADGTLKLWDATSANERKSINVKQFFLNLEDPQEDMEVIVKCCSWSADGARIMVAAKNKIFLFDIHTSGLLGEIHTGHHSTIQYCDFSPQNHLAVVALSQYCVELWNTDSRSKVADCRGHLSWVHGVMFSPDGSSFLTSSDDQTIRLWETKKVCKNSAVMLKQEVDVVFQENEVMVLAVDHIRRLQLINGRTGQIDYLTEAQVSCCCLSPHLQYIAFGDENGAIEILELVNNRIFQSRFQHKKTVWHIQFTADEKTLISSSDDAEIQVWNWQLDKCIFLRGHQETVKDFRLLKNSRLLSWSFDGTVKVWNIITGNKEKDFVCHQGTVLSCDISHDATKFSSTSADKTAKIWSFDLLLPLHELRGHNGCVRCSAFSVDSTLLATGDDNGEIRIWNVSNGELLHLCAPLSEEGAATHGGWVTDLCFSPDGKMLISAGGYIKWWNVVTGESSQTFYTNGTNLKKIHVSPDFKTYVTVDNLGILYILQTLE

[3] = target: T3, Histone-lysine N-methyltransferase NSD2 (Homo sapiens, UniProt O96028); type: biochemical
T3 sequence (O96028 whole entry): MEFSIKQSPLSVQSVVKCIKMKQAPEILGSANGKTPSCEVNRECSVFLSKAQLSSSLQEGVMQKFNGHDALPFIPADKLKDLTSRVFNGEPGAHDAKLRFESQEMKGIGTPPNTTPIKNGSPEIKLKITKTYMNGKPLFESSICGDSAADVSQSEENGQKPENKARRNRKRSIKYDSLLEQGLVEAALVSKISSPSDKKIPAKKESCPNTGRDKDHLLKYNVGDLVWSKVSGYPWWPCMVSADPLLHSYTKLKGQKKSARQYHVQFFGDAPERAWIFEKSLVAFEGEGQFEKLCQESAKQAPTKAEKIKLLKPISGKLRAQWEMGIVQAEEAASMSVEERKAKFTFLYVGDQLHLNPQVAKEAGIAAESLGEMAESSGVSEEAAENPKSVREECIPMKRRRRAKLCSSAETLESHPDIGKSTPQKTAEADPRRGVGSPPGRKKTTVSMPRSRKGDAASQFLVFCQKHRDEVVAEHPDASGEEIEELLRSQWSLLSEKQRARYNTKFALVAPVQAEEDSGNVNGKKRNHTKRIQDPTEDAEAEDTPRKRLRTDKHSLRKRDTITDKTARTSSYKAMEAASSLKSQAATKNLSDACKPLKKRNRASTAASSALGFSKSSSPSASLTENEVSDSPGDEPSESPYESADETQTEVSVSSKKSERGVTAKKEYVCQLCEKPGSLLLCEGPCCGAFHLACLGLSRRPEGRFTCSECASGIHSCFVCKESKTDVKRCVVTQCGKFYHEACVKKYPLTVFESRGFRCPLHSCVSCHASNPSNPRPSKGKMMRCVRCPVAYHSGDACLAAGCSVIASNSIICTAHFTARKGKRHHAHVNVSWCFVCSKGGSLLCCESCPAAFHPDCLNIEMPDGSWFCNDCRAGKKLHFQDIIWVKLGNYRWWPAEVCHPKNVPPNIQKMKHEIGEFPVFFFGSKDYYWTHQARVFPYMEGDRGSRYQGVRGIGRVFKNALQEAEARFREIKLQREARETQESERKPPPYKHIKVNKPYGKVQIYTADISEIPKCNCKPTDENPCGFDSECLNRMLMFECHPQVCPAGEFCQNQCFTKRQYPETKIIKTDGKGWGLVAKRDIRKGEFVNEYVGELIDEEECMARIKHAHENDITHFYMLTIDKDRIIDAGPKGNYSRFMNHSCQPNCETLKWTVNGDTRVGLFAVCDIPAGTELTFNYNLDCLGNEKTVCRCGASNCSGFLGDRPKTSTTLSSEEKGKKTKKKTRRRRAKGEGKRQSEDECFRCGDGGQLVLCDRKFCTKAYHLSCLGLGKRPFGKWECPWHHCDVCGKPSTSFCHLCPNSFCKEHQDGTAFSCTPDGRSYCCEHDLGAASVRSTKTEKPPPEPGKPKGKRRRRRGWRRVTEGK

[4] = target: T4, Dual specificity protein phosphatase 6 (Rattus norvegicus, UniProt Q64346); test: inhibition of rat DUSP6 enzyme activity – biochemical, in vitro, primary screen (AID 425)
T4 sequence (Q64346 whole entry): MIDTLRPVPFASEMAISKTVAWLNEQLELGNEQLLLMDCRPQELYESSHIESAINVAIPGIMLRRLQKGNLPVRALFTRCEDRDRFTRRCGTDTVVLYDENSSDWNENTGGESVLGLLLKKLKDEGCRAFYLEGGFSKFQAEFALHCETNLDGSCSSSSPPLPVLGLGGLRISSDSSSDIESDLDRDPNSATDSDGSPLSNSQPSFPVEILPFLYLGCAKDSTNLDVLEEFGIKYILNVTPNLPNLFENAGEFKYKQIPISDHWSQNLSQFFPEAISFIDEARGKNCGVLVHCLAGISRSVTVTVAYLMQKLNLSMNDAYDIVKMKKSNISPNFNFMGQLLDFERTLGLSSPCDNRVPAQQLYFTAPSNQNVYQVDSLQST

[5] = target: Ion channel NompC (Danio rerio, UniProt Q7T1G6); test: Fluorescence counterscreen assay for TRPML3 agonists: dose response cell-based high-throughput screening assay to identify agonists of the transient receptor potential channel N1 (TRPN1). [Related pubchem assays: 1526, 1424, 1448 ]; type: functional
[6] = target: Mucolipin-3 (Homo sapiens, UniProt Q8TDD5); test: Dose response cell-based high-throughput screening assay for agonists of the transient receptor potential channel ML3 (TRPML3). [Related pubchem assays: 1526, 1424, 1448 ]; type: functional
Mucolipin-3, sequence (Q8TDD5 whole entry): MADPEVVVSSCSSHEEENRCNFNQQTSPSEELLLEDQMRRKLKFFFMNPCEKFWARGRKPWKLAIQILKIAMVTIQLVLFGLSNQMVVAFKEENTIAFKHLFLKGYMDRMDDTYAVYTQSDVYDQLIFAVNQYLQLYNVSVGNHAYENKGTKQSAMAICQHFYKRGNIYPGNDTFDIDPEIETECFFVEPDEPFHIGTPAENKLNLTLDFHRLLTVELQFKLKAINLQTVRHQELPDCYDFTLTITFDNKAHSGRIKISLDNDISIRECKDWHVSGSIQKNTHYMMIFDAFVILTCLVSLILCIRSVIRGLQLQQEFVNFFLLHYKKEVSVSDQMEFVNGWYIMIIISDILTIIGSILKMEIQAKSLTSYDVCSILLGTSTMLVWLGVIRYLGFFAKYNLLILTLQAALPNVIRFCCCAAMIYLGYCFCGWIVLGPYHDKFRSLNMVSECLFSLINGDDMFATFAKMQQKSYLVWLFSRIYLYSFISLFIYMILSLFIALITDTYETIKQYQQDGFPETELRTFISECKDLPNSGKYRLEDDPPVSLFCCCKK

[7] = target: Sphingosine 1-phosphate receptor 2 (Homo sapiens, UniProt O95136); test: Dose Response Cell Based Assay for Agonists of the S1P2 Receptor of Purchased Analogues. [Related pubchem assays: 729, 843, 854, 736 ]; type: functional
Sphingosine 1-phosphate receptor 2, sequence (O95136 whole entry): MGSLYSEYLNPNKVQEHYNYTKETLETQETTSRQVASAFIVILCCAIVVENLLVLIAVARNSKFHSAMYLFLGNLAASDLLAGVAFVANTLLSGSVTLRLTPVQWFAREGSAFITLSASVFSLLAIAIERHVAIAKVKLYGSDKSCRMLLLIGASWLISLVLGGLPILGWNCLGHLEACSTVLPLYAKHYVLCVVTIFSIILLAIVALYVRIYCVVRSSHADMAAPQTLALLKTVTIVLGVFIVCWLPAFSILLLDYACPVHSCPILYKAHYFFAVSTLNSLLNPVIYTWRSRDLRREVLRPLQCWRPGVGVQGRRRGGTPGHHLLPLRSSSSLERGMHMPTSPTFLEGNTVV

[8] = A High Throughput Confirmatory Assay used to Identify Novel Compounds that Inhibit Mycobacterium Tuberculosis in the absence of Glycerol.; type: functional
[9] = target: T5, Estrogen receptor (Homo sapiens, UniProt P03372);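 note: potency for inhibiting coactivator peptide recruitment to the receptor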
T5 sequence (P03372 whole entry): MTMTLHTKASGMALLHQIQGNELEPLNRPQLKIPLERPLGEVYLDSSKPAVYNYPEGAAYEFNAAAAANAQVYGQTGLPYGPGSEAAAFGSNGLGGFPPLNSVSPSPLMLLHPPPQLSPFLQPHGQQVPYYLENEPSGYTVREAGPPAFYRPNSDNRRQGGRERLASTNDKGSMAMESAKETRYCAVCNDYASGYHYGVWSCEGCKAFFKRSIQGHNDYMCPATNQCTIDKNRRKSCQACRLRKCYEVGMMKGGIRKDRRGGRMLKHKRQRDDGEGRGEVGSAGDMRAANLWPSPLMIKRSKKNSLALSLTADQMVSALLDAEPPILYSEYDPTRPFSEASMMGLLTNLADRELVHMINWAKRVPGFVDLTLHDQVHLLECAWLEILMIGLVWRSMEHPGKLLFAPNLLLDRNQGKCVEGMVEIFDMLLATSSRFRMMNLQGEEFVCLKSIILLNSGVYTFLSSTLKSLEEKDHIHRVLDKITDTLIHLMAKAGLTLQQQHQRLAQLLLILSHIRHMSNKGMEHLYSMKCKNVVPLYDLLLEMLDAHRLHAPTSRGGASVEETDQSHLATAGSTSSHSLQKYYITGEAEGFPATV

[10] = target: T6, Estrogen receptor beta (Homo sapiens, UniProt Q92731); test: blockers of SRC-3 recruitment to ERβ – biochemical, ELISA, streptavidin-HRP readout, orthogonal assay, confirmation (AID 1060)
T6 sequence (Q92731 whole entry): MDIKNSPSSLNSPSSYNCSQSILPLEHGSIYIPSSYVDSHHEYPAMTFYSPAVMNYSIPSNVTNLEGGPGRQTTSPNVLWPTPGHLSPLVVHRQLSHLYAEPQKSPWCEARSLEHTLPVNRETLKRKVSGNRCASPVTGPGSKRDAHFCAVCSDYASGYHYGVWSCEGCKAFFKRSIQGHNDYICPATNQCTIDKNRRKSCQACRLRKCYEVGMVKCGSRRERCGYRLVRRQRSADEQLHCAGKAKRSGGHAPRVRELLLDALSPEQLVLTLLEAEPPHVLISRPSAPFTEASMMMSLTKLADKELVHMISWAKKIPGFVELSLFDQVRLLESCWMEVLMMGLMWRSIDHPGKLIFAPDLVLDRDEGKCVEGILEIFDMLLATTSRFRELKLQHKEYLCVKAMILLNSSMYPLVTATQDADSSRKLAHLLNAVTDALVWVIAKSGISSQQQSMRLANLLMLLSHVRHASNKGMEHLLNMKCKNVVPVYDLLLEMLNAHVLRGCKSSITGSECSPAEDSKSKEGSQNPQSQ

[11] = target: T6, Estrogen receptor beta
[12] = tested on: INS1; test: INS-1E survival protection against cytokine death – cell-based, luminescence, retest, dose response (AID 449756); type: functional; conditions: Rattus norvegicus;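 note: cell death triggered by IL-1 beta plus TNF-alpha plus IFN-gamma mixture; protective hits raise ATP signal compared with cytokine alone wells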
[13] = antiviral protection against BTV-induced cell death – arbovirus, BSR cells, confirmation (AID 1250); type: functional;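 note: protection from viral cytopathic effect measured as cell viability by ATP luminescence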
[14] = microbe, parasite or virus in culture; type: functional; conditions: Mycobacterium tuberculosis
[15] = target: T7, Voltage-gated N-type calcium channel alpha-1B subunit/Amyloid beta A4 precursor protein-binding family A member 1 (Homo sapiens, UniProt Q00975+Q02410); test: disruptors of Mint-PDZ/N-type channel peptide interaction – biochemical, HTRF, SAR follow-up (AID 2489); type: functional
T7 sequence (Q00975 whole entry): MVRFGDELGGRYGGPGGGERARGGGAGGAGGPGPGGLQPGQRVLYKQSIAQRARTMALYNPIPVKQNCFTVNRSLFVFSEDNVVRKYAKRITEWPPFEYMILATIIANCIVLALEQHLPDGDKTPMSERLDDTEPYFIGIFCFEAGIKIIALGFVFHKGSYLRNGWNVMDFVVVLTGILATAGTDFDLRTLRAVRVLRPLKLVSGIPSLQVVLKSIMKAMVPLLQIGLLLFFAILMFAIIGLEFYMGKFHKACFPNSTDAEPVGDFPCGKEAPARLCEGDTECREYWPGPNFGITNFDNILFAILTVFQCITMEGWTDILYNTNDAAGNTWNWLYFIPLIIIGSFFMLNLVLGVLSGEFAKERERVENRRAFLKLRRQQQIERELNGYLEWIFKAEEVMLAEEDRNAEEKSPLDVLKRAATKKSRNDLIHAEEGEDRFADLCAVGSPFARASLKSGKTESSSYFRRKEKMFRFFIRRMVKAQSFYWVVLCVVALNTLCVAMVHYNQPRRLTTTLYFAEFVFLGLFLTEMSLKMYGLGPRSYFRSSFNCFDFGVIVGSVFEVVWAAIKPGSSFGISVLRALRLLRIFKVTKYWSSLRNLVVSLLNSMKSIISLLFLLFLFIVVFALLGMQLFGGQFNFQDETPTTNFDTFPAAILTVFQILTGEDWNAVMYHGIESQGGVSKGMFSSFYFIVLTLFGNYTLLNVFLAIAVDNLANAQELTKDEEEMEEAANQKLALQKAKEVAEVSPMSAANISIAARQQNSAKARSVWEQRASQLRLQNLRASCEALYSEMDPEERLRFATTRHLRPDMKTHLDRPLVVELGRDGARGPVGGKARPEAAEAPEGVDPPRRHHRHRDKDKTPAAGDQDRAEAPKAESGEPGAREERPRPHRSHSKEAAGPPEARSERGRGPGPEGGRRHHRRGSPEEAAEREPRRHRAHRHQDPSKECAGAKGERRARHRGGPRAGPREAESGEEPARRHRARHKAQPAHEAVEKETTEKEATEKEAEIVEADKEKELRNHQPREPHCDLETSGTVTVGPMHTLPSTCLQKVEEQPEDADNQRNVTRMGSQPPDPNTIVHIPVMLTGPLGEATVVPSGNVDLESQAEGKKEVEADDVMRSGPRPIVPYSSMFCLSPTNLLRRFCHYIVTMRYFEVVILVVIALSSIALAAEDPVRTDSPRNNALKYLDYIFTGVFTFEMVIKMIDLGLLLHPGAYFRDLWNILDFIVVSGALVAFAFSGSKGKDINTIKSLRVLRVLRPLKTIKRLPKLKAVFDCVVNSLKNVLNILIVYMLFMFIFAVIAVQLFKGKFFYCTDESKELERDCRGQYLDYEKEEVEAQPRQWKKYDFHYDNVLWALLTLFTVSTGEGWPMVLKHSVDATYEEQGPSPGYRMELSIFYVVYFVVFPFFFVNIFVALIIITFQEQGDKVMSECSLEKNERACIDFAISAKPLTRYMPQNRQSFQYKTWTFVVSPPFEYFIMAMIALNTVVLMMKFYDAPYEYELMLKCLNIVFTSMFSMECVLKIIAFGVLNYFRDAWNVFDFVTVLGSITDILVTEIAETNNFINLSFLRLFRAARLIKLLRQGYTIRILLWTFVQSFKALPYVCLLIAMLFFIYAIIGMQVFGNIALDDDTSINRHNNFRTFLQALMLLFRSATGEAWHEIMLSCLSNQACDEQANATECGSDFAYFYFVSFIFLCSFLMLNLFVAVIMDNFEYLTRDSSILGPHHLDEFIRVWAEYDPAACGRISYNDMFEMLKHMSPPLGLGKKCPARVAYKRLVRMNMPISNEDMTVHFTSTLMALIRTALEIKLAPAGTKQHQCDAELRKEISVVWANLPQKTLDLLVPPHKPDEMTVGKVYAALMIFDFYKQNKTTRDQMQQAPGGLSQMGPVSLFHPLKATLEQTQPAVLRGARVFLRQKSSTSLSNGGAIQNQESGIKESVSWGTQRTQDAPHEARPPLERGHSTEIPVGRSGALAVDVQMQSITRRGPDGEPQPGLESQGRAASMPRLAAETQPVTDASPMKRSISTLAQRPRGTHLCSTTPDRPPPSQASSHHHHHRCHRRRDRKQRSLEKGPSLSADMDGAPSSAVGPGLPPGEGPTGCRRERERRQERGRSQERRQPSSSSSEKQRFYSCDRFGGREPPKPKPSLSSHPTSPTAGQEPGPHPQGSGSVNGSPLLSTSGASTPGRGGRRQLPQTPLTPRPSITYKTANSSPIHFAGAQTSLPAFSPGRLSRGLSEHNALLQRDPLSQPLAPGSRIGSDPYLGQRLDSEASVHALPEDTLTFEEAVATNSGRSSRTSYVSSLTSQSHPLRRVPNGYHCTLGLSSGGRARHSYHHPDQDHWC
T7 sequence (Q02410 whole entry): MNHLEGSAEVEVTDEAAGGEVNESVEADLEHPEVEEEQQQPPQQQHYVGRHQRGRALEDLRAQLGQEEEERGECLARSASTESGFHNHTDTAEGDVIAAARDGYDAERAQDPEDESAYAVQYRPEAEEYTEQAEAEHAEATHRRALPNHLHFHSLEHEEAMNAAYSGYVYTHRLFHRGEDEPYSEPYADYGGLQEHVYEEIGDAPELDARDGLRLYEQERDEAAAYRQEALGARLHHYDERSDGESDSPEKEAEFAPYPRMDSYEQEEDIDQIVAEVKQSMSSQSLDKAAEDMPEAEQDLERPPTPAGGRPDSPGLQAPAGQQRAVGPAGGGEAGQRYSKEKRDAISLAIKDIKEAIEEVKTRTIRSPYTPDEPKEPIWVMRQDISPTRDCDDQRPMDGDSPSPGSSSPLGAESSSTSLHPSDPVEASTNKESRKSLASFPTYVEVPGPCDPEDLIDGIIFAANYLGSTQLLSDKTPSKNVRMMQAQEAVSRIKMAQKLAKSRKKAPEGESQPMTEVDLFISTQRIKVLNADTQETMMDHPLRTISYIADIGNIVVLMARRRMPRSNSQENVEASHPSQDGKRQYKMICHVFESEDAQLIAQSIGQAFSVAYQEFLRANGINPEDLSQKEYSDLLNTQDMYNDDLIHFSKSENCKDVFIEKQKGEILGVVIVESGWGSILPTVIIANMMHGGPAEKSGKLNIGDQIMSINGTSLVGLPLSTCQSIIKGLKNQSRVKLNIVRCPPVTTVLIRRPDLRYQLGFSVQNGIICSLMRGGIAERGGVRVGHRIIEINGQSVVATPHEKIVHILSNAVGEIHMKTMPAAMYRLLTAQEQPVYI

[16] = target: T8, Bcl-2-like protein 10 (Homo sapiens, UniProt Q9HD36); test: Bcl-B/TR3 peptide binding disruption – biochemical, fluorescence polarization, FITC-TR3 peptide, selectivity assay for Bfl-1 inhibitor project, primary screen (AID 748);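 note: fluorescence polarization from a fluorescein-labelled TR3 peptide binding purified Bcl-B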
T8 sequence (Q9HD36 whole entry): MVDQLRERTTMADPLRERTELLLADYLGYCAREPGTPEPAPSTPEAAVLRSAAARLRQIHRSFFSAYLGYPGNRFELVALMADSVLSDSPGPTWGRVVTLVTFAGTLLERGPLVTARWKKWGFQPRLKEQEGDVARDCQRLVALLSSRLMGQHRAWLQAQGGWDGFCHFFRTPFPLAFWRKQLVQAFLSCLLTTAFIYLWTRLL

[17] = target: SUMO E1/E2 (Homo sapiens, UniProt P63279+Q9UBE0+Q9UBT2); test: SAR analysis of SUMOylation using HTRF in an in-Vitro dose response assay. [Related pubchem assays (depositor defined):AID2006, AID2011, AID2018, AID2069, AID2658]; type: functional
[18] = target: T7, Voltage-gated N-type calcium channel alpha-1B subunit/Amyloid beta A4 precursor protein-binding family A member 1; test: disruptors of Mint-PDZ/N-type channel peptide interaction – biochemical, HTRF, set 2, SAR follow-up (AID 434980); type: functional

SMILES: CCCCNC(=O)c1c(N)n(CCCOC)c2nc3ccccc3nc12
- IC50 [1]: 17.9 µM (inactive)
- IC50 [2]: 27.7 µM (active)
- AC50 [3]: 8.05 µM (active)
- IC50 [4]: > 100 µM (not active)

SMILES: COc1cccc(CN(CC2CCCO2)S(=O)(=O)c2ccc(S(=O)(=O)N(C)C)cc2)c1 (stereo not given)
- EC50 [5]: > 29.9 µM (not active)
- EC50 [6]: > 29.9 µM (not active)

SMILES: Cc1cc(C(=O)COC(=O)Cn2cnc3ccccc3c2=O)c(C)n1Cc1ccccc1
- EC50 [7]: > 30 µM (not active)

SMILES: Cn1c(=O)n(Cc2ccccc2)c(=O)c2c1nc1n2CCCN1C1CCCCC1
- IC50 [8]: > 100 µM (active)

SMILES: Cc1cc(C(=O)CN2C(=O)C(=O)N(C)C2=O)c(C)n1Cc1ccccc1
- EC50 [7]: 22.3 µM (not active)

SMILES: CCOC(=O)C1=c2/c(=C/c3ccccc3OC)c(N)c(C#N)n2C(=O)C(c2ccccc2OC)S1 (stereo not given)
- IC50 [9]: 9.8 µM (active)
- IC50 [10]: 78.5 µM (not active)
- IC50 [11]: > 50 µM (not active)

SMILES: CN(c1ccccc1)S(=O)(=O)c1cccc(Cl)c1Cl
- EC50 [5]: > 29.9 µM (not active)
- EC50 [6]: 4.52 µM (active)

SMILES: O=C(Nc1nc2ccccc2s1)c1cc(-c2ccccc2)nn1-c1ccccc1
- AC50 [12]: 3.62 µM (active)
- IC50 [13]: 47.4 µM (active)

SMILES: COc1ccc([C@H]2CC(=O)C=C(c3ccc4c5c(cccc35)CC4)C2)cc1
- CC50 [14]: > 40 µM (active)
- IC50 [8]: > 100 µM (active)

SMILES: CCOC(=O)c1cnc2c(-c3ccc(F)cc3)cnn2c1C(F)(F)F
- IC50 [13]: 23.1 µM (active)

SMILES: O=C(Nc1ccccc1N1CCOCC1)c1cc(-c2ccco2)nc2ccccc12
- IC50 [15]: 39.3 µM (active)
- IC50 [16]: 95.1 µM (inactive)
- IC50 [17]: 48.2 µM (active)
- IC50 [10]: 1.04 µM (not active)
- IC50 [18]: 9.81 µM (active)
- IC50 [11]: 3.78 µM (active)
